Here are results for eleven molecules from publication doi:10.1101/2021.06.14.448287v1, “Plasmodium falciparum protein Pfs16 is a target for transmission-blocking antimalarial drug development” (biorxiv, 2021).

By IC50 is commonly meant the concentration needed to halve the response being measured. Low readings indicate greater potency in that assay, high ones weaker potency in that assay.

The first test has as its target T1, Pfs16 (Plasmodium falciparum, UniProt Q6ZMA7).
T1 construct: native full-length protein in stage V gametocytes or their Triton X-100 lysate; 157 residues, 16 kDa, two transmembrane domains
T1 sequence (Q6ZMA7 26-157): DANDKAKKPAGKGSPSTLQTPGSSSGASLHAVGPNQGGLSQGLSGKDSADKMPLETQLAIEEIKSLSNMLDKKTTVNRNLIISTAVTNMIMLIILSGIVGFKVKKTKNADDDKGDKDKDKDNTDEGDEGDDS
Put plainly: CETSA melt curve with immunoblot. The format is biochemical. To be noted: activated stage V gametocyte lysate, 100 uM compound, 1% Triton X-100, pH 7.5; also isothermal dose response at 78.4 °C. For orientation: A western blot detects proteins with antibodies after separation by electrophoresis.
Take `O=S(=O)(NCC1(O)CCOc2ccccc21)c1ccc(Br)s1` (stereo not shown) [DDD01035881]: the Tm shift entry was “DDD01035881 treatment clearly resulted in a positive shift in the Pfs16 melting curve”.

The subject of the next test is T2, P. falciparum NF54 stage V male gametocytes.
T2 construct: NF54
In words: microbe, parasite or virus in culture. Details: male gamete formation assay (DGFA format), inhibition of exflagellation of stage V gametocytes. The conditions noted are these: Plasmodium falciparum, NF54, male gamete formation. From the text:
Yahiya et al. 2021 Supplement Page 26 of 27 345 IC50 determination by male gamete formation assay 346 The male gamete formation assay (MGFA) was adapted from the previously described dual gamete formation assay (DGFA)3 347 to identify male gamete targeted activity. Briefly, compounds 348 were dispensed into 384-well plates using the HP D300 Digital Dispenser in serial dilutions. Single 349 point controls, a DMSO negative control (0.25% final assay volume) and 20 µM DDD01028076 350 positive control, were included across the plate. Maintaining RT, 10 µl ookinete medium was 351 dispensed into each well, followed by addition of 50 µl of stage V NF54 gametocyte culture (day 14 352 post-induction and onwards). […] Plates were then immediately incubated at 4°C 354 for 4 minutes, followed by 28°C for 5 minutes. Table 1. DDD01035881 and derivatives Activity of DDD01035881 and structural analogues as determined in a structure activity relationship study. IC50s depicted represent the inhibition of male gamete viability as determined by the male gamete formation format of the DGFA. Values are expressed as an average ± SEM of 3-8 biological replicates, ≥ 2 technical replicates.[15]
Take `O=S(=O)(NCC1(O)CCOc2ccccc21)c1ccccc1Br` (stereo not shown) [DDD01028076]: the IC50 was found to be 0.367 ± 0.06 µM.

Molecule `O=S(=O)(NCC1(O)CCOc2ccccc21)c1ccc(Br)s1` (stereo not shown) [DDD01035881] registered an IC50 of 0.292 ± 0.076 µM. The same measure, in the same setting: then `O=S(=O)(NCC1(O)CCOc2ccc(Br)cc21)c1cccc(Br)c1` (stereo not shown) [compound 1, parent molecule 1], with 0.785 ± 0.048 µM; and `C#Cc1ccc2c(c1)C(O)(CNS(=O)(=O)c1cccc(N=[N+]=[N-])c1)CCO2` (stereo not shown) [compound 2, probe 2], with 3.98 ± 0.211 µM. Turning to `C#Cc1ccc2c(c1)C(O)(CNS(=O)(=O)c1cccc(Br)c1)CCO2` (stereo not shown) [compound 3, 3], the IC50 was 0.37 ± 0.079 µM. Turning to `C#Cc1cccc(S(=O)(=O)NCC2(O)CCOc3ccccc32)c1` (stereo not shown) [compound 4, 4], the IC50 is above 1 µM. The molecule `C#Cc1ccc2c(c1)C(O)(CN(CCC1(C)N=N1)S(=O)(=O)c1cccc(Br)c1)CCO2` (stereo not shown) [compound 5, 5] came in with an IC50 above 25 µM. On the same count and under the same terms, then `O=S(=O)(NCC1(O)CCOc2ccc(O)cc21)c1cccc(Br)c1` (stereo not shown) [compound 6, 6], with above 11 µM; and `C=CCOc1ccc2c(c1)C(O)(CNS(=O)(=O)c1cccc(Br)c1)CCO2` (stereo not shown) [compound 7, 7], with above 25 µM; and `CCCCn1cc(-c2ccc3c(c2)C(O)(CNS(=O)(=O)c2cccc(Br)c2)CCO3)nn1` (stereo not shown) [compound 9, 9], with above 25 µM. The same measure, in the same setting: then `CN(CC1(O)CCOc2ccccc21)S(=O)(=O)c1cccc(Br)c1` (stereo not shown) [compound 10, 10], with above 10 µM.

For another test, the target named is T1, Pfs16. Put plainly: photoaffinity labelling, click capture, pulldown, TMT nLC-MS/MS, in-gel fluorescence and immunoblot. The format is cell-based. To be noted: live stage V gametocytes, 2.5-10 uM, 254 nm UV; covalent after irradiation.
Regarding `C#Cc1ccc2c(c1)C(O)(CNS(=O)(=O)c1cccc(N=[N+]=[N-])c1)CCO2` (stereo not shown) [compound 2, probe 2], the “photoaffinity labelling, click capture, pulldown, TMT nLC-MS/MS, in-gel fluoresc” value is “a dose-dependent pulldown of Pfs16 was clearly observed”.
